How the values were obtained:
[1] = DRUGMATRIX: Calcium Channel Type L, Benzothiazepine radioligand binding (ligand: [3H] Diltiazem); format: cell membranes, Rattus norvegicus, Wistar, Brain, Membrane; conditions: Not Active = under 50% inhibition at 10 µM
[2] = target: Vascular endothelial growth factor receptor 1 (Homo sapiens, UniProt P17948); test: biochemical; format: cell-based, HUVEC; conditions: huvec; further: in other assays of this panel Not Active means under 50% inhibition at 10 µM
[3] = target: T1, C-X-C chemokine receptor type 2 (Homo sapiens, UniProt P25025); format: cell membranes, Membrane; conditions: cho-k1; further: in other assays of this panel Not Active means under 50% inhibition at 10 µM
T1 sequence (P25025 whole entry): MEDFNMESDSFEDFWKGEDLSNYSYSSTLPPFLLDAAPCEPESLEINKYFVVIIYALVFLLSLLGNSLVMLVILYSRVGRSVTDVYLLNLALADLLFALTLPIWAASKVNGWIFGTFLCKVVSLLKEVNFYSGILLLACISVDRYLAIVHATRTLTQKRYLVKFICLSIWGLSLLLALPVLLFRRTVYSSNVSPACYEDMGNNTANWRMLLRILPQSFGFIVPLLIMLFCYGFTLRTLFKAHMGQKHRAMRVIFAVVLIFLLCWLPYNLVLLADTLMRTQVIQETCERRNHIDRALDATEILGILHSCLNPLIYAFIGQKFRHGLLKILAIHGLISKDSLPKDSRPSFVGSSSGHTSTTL

[4] = DRUGMATRIX: Nicotinic Acetylcholine radioligand binding (ligand: [125I] Epibatidine); format: cell membranes, Membrane; conditions: imr-32; Not Active = under 50% inhibition at 10 µM
[5] = target: T2, Angiotensin-converting enzyme (Oryctolagus cuniculus, UniProt P12822); format: tissue-based, Lung;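 further: enzymatic inhibition of angiotensin-converting enzyme measured with FAPGG as the substrate; in other assays of this panel Not Active means under 50% inhibition at 10 µM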
T2 sequence (P12822 whole entry): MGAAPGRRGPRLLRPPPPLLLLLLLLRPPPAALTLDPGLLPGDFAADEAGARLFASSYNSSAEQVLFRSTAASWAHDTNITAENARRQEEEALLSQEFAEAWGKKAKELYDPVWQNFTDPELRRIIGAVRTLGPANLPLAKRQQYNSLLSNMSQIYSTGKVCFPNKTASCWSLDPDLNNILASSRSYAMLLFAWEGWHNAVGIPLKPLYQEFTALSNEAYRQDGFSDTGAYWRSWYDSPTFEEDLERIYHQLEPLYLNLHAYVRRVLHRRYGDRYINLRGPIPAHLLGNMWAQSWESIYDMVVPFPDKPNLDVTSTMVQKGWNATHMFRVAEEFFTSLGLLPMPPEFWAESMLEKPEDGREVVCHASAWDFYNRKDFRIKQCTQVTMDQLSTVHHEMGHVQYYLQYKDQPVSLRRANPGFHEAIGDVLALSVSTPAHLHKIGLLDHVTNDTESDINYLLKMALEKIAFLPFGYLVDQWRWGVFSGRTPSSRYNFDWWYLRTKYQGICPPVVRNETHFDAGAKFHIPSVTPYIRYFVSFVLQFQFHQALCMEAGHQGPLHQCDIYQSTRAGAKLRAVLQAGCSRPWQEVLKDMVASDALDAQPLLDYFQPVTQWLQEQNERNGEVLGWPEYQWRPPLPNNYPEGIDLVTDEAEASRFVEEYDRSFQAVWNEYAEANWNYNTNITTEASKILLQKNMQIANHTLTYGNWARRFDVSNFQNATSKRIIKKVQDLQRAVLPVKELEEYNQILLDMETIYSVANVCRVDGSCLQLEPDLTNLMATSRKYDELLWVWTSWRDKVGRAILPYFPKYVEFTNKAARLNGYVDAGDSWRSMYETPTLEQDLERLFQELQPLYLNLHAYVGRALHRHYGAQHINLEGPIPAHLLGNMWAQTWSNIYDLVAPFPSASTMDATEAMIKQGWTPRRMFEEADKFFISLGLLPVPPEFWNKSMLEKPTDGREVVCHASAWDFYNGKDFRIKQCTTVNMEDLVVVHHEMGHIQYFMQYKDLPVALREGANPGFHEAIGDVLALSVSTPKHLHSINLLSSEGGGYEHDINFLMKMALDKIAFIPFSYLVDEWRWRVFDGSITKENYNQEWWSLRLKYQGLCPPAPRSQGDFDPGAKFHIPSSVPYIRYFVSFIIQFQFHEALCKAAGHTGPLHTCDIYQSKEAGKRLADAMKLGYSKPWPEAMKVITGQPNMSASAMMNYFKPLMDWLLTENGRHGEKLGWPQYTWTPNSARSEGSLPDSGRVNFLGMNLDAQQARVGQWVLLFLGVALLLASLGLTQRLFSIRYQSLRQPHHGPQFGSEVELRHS

Acetylcholinesterase = Acetylcholinesterase (Homo sapiens, UniProt P22303); test: DRUGMATRIX: Acetylcholinesterase enzyme inhibition (substrate: acetylthiocholine); format: cell-based, HEK293; conditions: hek293; Not Active = under 50% inhibition at 10 µM
Cytochrome P450 2E1 = Cytochrome P450 2E1 (Homo sapiens, UniProt P05181); conditions: bti-tn-5b1-4; further: in other assays of this panel Not Active means under 50% inhibition at 10 µM
Sequence of Cytochrome P450 2E1 (P05181 whole entry): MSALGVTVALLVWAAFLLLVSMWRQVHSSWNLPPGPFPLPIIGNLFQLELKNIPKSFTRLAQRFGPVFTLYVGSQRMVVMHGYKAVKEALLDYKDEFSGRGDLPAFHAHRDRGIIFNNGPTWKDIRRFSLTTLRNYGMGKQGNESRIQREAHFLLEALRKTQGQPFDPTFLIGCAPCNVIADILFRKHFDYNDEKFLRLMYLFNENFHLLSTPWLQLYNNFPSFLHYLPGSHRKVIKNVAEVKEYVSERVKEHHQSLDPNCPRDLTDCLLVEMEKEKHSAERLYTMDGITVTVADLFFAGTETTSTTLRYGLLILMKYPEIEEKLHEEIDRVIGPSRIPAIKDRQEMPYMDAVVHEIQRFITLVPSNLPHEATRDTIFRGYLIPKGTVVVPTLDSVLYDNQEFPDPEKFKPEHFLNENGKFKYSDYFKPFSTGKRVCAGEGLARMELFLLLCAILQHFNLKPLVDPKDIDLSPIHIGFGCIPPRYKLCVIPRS

Sequence of Acetylcholinesterase (P22303 whole entry): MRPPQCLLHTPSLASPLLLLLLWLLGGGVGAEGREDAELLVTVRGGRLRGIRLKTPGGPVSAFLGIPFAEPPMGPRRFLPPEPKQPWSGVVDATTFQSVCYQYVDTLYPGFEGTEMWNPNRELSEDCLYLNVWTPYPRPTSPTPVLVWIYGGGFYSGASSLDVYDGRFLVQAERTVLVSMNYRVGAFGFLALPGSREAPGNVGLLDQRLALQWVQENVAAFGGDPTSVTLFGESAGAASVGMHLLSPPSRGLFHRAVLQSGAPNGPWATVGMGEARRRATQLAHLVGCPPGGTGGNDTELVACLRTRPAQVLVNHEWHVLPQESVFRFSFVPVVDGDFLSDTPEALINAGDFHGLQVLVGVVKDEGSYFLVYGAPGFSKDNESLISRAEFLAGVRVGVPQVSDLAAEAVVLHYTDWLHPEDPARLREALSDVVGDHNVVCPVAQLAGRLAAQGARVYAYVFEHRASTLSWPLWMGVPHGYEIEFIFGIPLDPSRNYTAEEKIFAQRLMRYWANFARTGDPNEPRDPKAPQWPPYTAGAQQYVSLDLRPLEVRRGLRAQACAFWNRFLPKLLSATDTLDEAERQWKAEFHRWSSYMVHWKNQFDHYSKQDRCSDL
Sequence of Vascular endothelial growth factor receptor 1 (P17948 whole entry): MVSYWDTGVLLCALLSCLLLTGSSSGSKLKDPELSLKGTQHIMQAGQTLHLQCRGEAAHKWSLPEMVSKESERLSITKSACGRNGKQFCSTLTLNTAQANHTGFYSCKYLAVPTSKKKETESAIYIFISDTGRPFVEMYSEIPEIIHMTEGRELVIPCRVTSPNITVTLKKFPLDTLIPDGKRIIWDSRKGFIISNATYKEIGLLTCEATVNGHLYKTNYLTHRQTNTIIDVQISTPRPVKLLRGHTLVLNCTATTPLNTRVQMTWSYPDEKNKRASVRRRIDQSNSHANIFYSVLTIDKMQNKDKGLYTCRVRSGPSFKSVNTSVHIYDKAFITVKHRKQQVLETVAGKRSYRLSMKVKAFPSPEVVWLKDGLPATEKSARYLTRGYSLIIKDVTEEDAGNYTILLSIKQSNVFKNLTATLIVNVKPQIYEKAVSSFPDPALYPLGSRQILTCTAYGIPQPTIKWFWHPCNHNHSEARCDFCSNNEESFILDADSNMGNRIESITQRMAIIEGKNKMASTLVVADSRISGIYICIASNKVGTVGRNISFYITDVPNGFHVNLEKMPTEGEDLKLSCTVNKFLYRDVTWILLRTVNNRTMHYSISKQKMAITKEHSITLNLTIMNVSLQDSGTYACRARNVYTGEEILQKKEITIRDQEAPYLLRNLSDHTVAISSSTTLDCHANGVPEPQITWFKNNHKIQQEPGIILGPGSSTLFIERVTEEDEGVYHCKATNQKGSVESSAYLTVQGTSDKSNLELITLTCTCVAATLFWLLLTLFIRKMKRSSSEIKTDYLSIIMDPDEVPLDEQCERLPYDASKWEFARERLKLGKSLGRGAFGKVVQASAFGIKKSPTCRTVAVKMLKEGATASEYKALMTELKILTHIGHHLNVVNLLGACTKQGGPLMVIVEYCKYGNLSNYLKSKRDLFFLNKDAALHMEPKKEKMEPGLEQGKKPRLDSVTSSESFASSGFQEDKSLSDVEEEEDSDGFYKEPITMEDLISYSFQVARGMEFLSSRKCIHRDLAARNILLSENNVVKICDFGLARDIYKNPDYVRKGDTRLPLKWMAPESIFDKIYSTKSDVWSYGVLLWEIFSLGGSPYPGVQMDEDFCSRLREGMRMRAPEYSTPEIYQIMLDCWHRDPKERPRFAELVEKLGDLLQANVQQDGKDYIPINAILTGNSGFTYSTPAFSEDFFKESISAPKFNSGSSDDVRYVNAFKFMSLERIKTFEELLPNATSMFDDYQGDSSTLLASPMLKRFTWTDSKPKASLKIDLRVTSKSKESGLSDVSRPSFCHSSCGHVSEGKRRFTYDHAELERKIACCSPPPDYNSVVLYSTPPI

| Compound | IC50 [1] | Ki [1] | IC50 [2] | IC50 [3] | IC50 [4] | Ki [4] | IC50 [5] | IC50 (Acetylcholinesterase) | IC50 (Cytochrome P450 2E1) | Ki (Cytochrome P450 2E1) | Ki [2] | Ki [3] | Ki [5] | Ki (Acetylcholinesterase) | IC50 ([1]; read-out: IC50) [nM] | Ki ([1]; read-out: Ki) [nM] |
| --- | --- | --- | --- | --- | --- | --- | --- | --- | --- | --- | --- | --- | --- | --- | --- | --- |
| Nc1ccc(S(=O)(=O)Nc2ncccn2)cc1 [SULFADIAZINE] | Not Active | Not Active | Not Active | Not Active | Not Active | Not Active | Not Active | Not Active | Not Active | Not Active | – | – | – | – | – | – |
| Nc1ccc(S(=O)(=O)Nc2nccs2)cc1 [SULFATHIAZOLE] | Not Active | Not Active | Not Active | Not Active | Not Active | Not Active | Not Active | Not Active | Not Active | Not Active | – | – | – | – | – | – |
| O=C(O)C(Cl)(Cl)Cl [TRICHLOROACETIC ACID] | Not Active | Not Active | Not Active | Not Active | Not Active | Not Active | Not Active | Not Active | Not Active | Not Active | – | – | – | – | – | – |
| C=C(C)[C@H]1Cc2c(ccc3c2O[C@@H]2COc4cc(OC)c(OC)cc4[C@@H]2C3=O)O1 [ROTENONE] | Not Active | Not Active | Not Active | Not Active | Not Active | Not Active | Not Active | Not Active | Not Active | Not Active | – | – | – | – | – | – |
| C#CCN(C)[C@H](C)Cc1ccccc1 [SELEGILINE] | Not Active | Not Active | Not Active | Not Active | Not Active | Not Active | Not Active | Not Active | Not Active | Not Active | – | – | – | – | – | – |
| COc1cc(N)nc2[nH]c(-c3ccc(F)cc3)c(-c3ccncc3)c12 | Not Active | Not Active | Not Active | Not Active | Not Active | Not Active | Not Active | Not Active | Not Active | Not Active | – | – | – | – | – | – |
| THIMEROSAL | Not Active | Not Active | Not Active | Not Active | Not Active | Not Active | Not Active | Not Active | Not Active | Not Active | Not Active | Not Active | Not Active | Not Active | – | – |
| CNS(=O)(=O)Cc1ccc2[nH]cc(CCN(C)C)c2c1 | Not Active | Not Active | Not Active | Not Active | Not Active | Not Active | Not Active | Not Active | Not Active | Not Active | – | – | – | – | – | – |
| C[C@]12CC[C@H]3[C@@H](CCC4=CC(=O)CC[C@@]43C)[C@@H]1CC[C@@H]2O [TESTOSTERONE] | Not Active | Not Active | Not Active | Not Active | Not Active | Not Active | Not Active | Not Active | Not Active | Not Active | – | – | – | – | – | – |
| C[C@@H]1C[C@H]2[C@@H]3CCC4=CC(=O)C=C[C@]4(C)C3=CC[C@]2(C)[C@H]1C(=O)CN1CCN(c2cc(N3CCCC3)nc(N3CCCC3)n2)CC1 [TIRILAZAD] | – | – | Not Active | Not Active | Not Active | Not Active | Not Active | Not Active | Not Active | Not Active | – | – | – | – | 2690 | 2400 |
| NC[C@H]1O[C@H](O[C@H]2[C@H](O)[C@@H](O[C@H]3O[C@H](CO)[C@@H](O)[C@H](N)[C@H]3O)[C@H](N)C[C@@H]2N)[C@H](N)C[C@@H]1O [TOBRAMYCIN] | Not Active | Not Active | Not Active | Not Active | Not Active | Not Active | Not Active | Not Active | Not Active | Not Active | – | – | – | – | – | – |

From ChEMBL document CHEMBL1909046, “DrugMatrix in vitro pharmacology data”
